From PubChem BioAssay AID2206 (Vanderbilt High Throughput Screening Facility, 2009) come the findings set out here.

Calls of active or inactive are those of the source.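 The calls were made as follows: active = average EC50 below 10 µM; inactive = average EC50 of 10 µM or more.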 Where only a bound is given, the exact number is not on record here.

A word on the EC50: it is the concentration at which the effect is half-maximal.

This assay deals with Muscarinic acetylcholine receptor M1 (Rattus norvegicus) (UniProt P08482). Description: rat M1 positive allosteric modulators, SAR follow-up, selectivity assay for M5 allosteric modulator project, cell-based (AID 2206). Particulars: CHO-K1 rat M1, Fluo-4 calcium, ACh EC20 potentiation.
Sequence of Muscarinic acetylcholine receptor M1 (Rattus norvegicus) (P08482 whole entry, looked up): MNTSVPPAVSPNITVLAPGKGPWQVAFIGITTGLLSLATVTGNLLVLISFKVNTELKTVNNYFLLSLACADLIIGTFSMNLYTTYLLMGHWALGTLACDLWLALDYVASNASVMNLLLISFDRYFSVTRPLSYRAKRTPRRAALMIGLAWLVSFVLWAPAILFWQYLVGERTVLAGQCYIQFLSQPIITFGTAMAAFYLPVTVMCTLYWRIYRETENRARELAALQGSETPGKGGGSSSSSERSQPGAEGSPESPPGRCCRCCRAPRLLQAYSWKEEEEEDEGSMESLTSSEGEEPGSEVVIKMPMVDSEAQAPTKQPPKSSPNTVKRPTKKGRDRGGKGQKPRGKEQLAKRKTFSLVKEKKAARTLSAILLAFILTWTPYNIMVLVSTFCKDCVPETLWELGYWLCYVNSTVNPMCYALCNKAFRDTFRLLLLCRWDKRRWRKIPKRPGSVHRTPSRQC
Consider `O=C1C(=O)N(Cc2ccccc2Cl)c2ccc(OC(F)(F)F)cc21`, for which the EC50 was > 30 µM (inactive).
The same measure for `O=C1C(=O)N(Cc2ccc(Br)cc2)c2c(F)cccc21`: 3.99 µM.
For the compound `COc1ccc(CN2C(=O)C(=O)c3ccccc32)cc1`, the EC50 result was “inactive”.
The same measure for `O=C1C(=O)N(Cc2ccc(C(F)(F)F)cc2)c2ccc(Cl)cc21`: 5.41 µM.
To `COc1cccc(CN2C(=O)C(=O)c3c(Cl)ccc(Cl)c32)c1` belongs > 30 µM (inactive); to `Cc1ccccc1CN1C(=O)C(=O)c2cc(OC(F)(F)F)ccc21`, > 10 µM (inactive).
To `COc1cccc(CN2C(=O)C(=O)c3cc(OC(F)(F)F)ccc32)c1` belongs > 30 µM (inactive).
For `O=C1C(=O)N(Cc2ccc(C(F)(F)F)cc2)c2ccc(OC(F)(F)F)cc21`, the half-maximal effective concentration (EC50) was 7.09 µM.
To `O=C1C(=O)N(Cc2ccccc2C(F)(F)F)c2ccc(F)cc21` belongs 6.21 µM; to `COc1ccc(CN2C(=O)C(=O)c3cccc(Cl)c32)cc1`, 5.38 µM; to `O=C1C(=O)N(Cc2ccc(Br)cc2F)c2ccc(OC(F)(F)F)cc21`, > 10 µM (inactive).
To `COc1ccc(CN2C(=O)C(=O)c3cc(OC(F)(F)F)ccc32)cc1` belongs > 30 µM (inactive).
The same measure for `O=C1C(=O)N(Cc2ccccc2C(F)(F)F)c2c(F)cccc21`: > 30 µM (inactive); for `O=C1C(=O)N(Cc2ccc(C(F)(F)F)cc2)c2c(F)cccc21`: 5.18 µM; for `O=C1C(=O)N(Cc2ccc(OC(F)(F)F)cc2)c2ccc(OC(F)(F)F)cc21`: > 30 µM (inactive).
